Source: article PMC7062083, “Metabolite identification, tissue distribution, excretion and preclinical pharmacokinetic studies of ET-26-HCl, a new analogue of etomidate” (Royal Society Open Science, 2020)
Entries after “also recorded” stand apart in the source; their conditions may differ.

Columns and labels:
[1] = rats, i.v. ET-26-HCl; cited from earlier work
[2] = Excretion (urine, faeces, bile) in Sprague Dawley rats; format: in vivo
Procedure: (§1) Concentrations of ET-26-HCl and ET-26-acid in biological samples were determined by liquid chromatography–tandem mass spectrometry (LC–MS/MS) after deproteinization with methanol. The bioanalytical method for simultaneous quantification of ET-26-HCl and ET-26-acid in the different matrix was fully validated according to FDA guidelines (electronic supplementary material, figure S1 and tables S1 and S2) in our previous study. Briefly, a 100 µl sample (plasma, tissue homogenate, bile, urine and faeces suspension) were spiked with 20 µl of IS solution and vortexed for 30 s. The mixture was then processed for protein precipitation with 300 µl methanol, followed by centrifugation at 12 000 r.p.m. for 5 min. Supernatant was collected and analysed by LC–MS/MS system.
SD rats (4 male and 4 female) received 4.2 mg kg^−1 of ET-26-HCl intravenously and were housed in metabolic cages. Urine and faeces from the treated rats were collected between 0–6, 6–12, 12–24, 24–30, 30–36 and 36–48 h post-dosing. Urine volume and faeces weight were measured and recorded.
Bile fistulas of SD rats (four male and four female) were cannulated with polyethylene tube (Instech Laboratories, Inc., USA) and bile was collected at the following time-points: 0–3, 3–6, 6–9, 9–12 and 12–24 h post-dosing. The volume of the collected bile was measured and stored at −80°C until analysis.

[3] = Pharmacokinetics in beagle dogs after intravenous administration; format: in vivo; details: beagle dogs after i.v. ET-26-HCl
Procedure: as §1
The LC–MS/MS was performed as described previously. Briefly, ET-26-HCl, ET-26-acid and GBP were separated using a CAPCELL PAK C18 column (50 × 2.00 mm, 5.00 µm) as well as a Security Guard Cartridge (C18, 4 mm × 3.00 mm i.d., Phenomenex). The mobile phase consisting of 0.3% formic acid water (A), and methanol (B) was pumped at a flow rate of 0.6 ml min^−1. The gradient elution was achieved according to the following protocol: 0 min to about 0.50 min, A/B (41/9, v/v); 0.51 min to about 1.5 min, A/B (1/9, v/v); and 1.51 min to about 2.00 min, A/B ([…], v/v). Mass spectrometry was conducted on an API 3000 mass spectrometer (Sciex, Framingham, MA, USA) equipped with an electrospray ionization (ESI) source operating in positive mode. The MS/MS system was in the multiple reaction monitoring (MRM) mode, using the m/z transitions of 275.6/170.9 for ET-26-HCl, 217.7/113.1 for ET-26-acid and 172.5/154.3 for GBP (IS), respectively. The API 3000 mass parameters were set according to the following protocol: curtain gas, 6 psi; collision gas, 8 psi; nebulizer, 4 psi; ion spray voltage, 3000 V and ion source temperature, 450°C. The autosampler was conditioned at 4°C, and the injection volume was 5 µl. The linear ranges of this analytical method for ET-26-HCl and for ET-26-acid from all biological samples are shown in electronic supplementary material, table S3.
Beagle dogs, weighing 9–11 kg, were purchased from Sichuan Industrial of Antibiotics, China National Pharmaceutical Group Corporation (Chengdu, China). A 3 × 3 crossover experimental design with 24 beagles (equal number of male and female dogs) randomly divided into six groups was conducted. Beagle dogs in the six groups received three doses of ET-26-HCl: 1.045 mg kg^−1, 2.090 mg kg^−1 and 4.180 mg kg^−1 as low (L), medium (M) and high (H) dose. Blood samples (2 ml) were collected from the elbow vein in 4 ml heparinized tubes before dosing, and at 1, 3, 5, 10, 20, 30, 120 and 180 min post-dosing. All blood samples were centrifuged at 8000 r.p.m. for 10 min and plasma collected and stored at −80°C until analysis.
All calculations were performed on Microsoft Excel 2016 (Microsoft Co., USA). The Drug and Statistics 3.2.7 (DAS 3.2.7) software package (Mathematical Pharmacology Professional Committee of China, China) was used to acquire the main pharmacokinetic parameters of ET-26-HCl. All data were shown as mean ± standard deviation (s.d.). Statistical significances were calculated by one-way analysis of variance (ANOVA).

[4] = Tissue distribution in Sprague Dawley rats; format: in vivo; details: i.v. 4.2 mg kg^−1 ET-26-HCl
Procedure: as §1
Sprague Dawley (SD) rats (200–240 g) were provided by the Animal Facility at Sichuan University (Chengdu, China). All rats received a single 4.2 mg kg^−1 dose of ET-26-HCl intravenously. Rats were sacrificed and tissues, including heart, spleen, lung, intestine, colon, kidney, brain, fat, stomach, liver, muscle, testis and ovary were collected at 0, 1, 3, 6 and 10 h post-dosing (six rats/time-point). Tissue samples were rinsed thrice in ice cold saline, and blotted dry with filter papers. Weighed amount of tissues were homogenized in normal saline (thrice the tissue weight, w/v) and homogenates were stored at −80°C until analysis.

[5] = Stability in beagle plasma (LC-MS/MS); format: in vitro ADME
Procedure: as §1

[6] = Identification of major metabolites in liver microsomes (UPLC-Q-TOF-MS); format: in vitro ADME, mouse, rat, beagle dog, monkey and human; details: 10 µM ET-26-HCl, 1 mg ml^−1 liver microsomes, NADPH, 1 h
Procedure: The major metabolites of ET-26-HCl in liver microsomes from mouse, rat, beagle dog, monkey and human were determined by the UPLC-Q-TOF-MS system.
Reaction mixture containing 10 µM ET-26-HCl, […] MgCl2 and 1 mg ml^−1 liver microsomes in Tris-HCl phosphate buffer (pH 7.4) was pre-incubated for 6 min at 37°C, followed by the addition of NADPH. After incubation for 1 h, methanol was added to stop the reaction. Samples were centrifuged at 11 000 r.p.m. for 5 min; supernatants were collected and air dried at 40°C. Residues were dissolved in 100 µl acetonitrile/water (1:1, v/v) and analysed by the UPLC-Q-TOF-MS.
The UPLC-Q-OF-MS system was equipped with a Waters Synapt G2-Si quadrupole time-of-flight mass spectrometer (Q-TOF-MS), an ESI source and an ACQUITY UPLC H-CLASS liquid chromatography system. The chromatographic separations were achieved on an ACQUITY UPLC BEH C18 column (2.1 × 100 mm, i.d. 1.7 µm, Waters, USA) kept at 45°C and a flow rate of 0.4 ml min^−1. The mobile phase consisted of 5 mM ammonium acetate with 0.1% formic acid (A) and acetonitrile with 0.1% formic acid (B). The optimized gradient elution programme followed was 0 min to 2.1 min, A/B (19/1, v/v); 2.1 min to 7.3 min, A/B (1/4, v/v); 7.3 min to 8.0 min, A/B (1/9, v/v); and 8.0 min to 10 min, A/B (19/1, v/v). The injection volume was 5 µl. The mass experiment was operated in positive ion modes under the following parameters: turbo spray temperature, 120°C; ion spray voltage, 3.0 kV. Nitrogen was used as the nebulizer and the auxiliary gas; meanwhile, the nebulizer gas was set to 650 l h^−1 and kept at 350°C. The collision energy was set at 5–10 V and the collision energy spread was 4–6 V. TOF-MS was scanned with the mass range of m/z 50–600 with 200 ms accumulation time. A 400 ng ml^−1 leu-enkephalin (m/z 556.2771) was selected as an external standard for mass–charge ratio correction at a flow rate of 5 µl min^−1.

[7] = i.v. ET-26-HCl 4.2 mg kg^−1, collected to 48 h

SMILES: C[C@H](c1ccccc1)n1cncc1C(=O)O [ET-26-acid]
- plasma exposure of metabolite relative to parent (in words) [1]: higher plasma exposure than the parent drug
- accumulative excretion through bile ([2]; i.v. ET-26-HCl 4.2 mg kg^−1, bile collected to 24 h): 0.027%
- accumulative excretion through faeces [2, 7]: 0.080%
- accumulative excretion through urine [2, 7]: 12.49%
- plasma concentration of ET-26-acid (in words) [3]: almost non-detectable; also recorded: almost undetectable
- time for clearance from tissues [4]: around 3 h
- tissues with the highest concentration [4]: plasma and liver
- Measured concentration (Mean ± SD) ([5]; 4◦C for 3 h, nominal 38.24 ng/mL): 39.92 ± 2.904 ng/mL
- Measured concentration (Mean ± SD) ([5]; 4◦C for 3 h, nominal 3186 ng/mL): 2890 ± 174.8 ng/mL
- Measured concentration (Mean ± SD) ([5]; Freeze and Thaw Cycle (3), nominal 38.24 ng/mL): 36.23 ± 2.568 ng/mL
- Measured concentration (Mean ± SD) ([5]; Freeze and Thaw Cycle (3), nominal 3186 ng/mL): 2770 ± 157.7 ng/mL
- Measured concentration (Mean ± SD) ([5]; Room temperature 3 h, nominal 38.24 ng/mL): 38.29 ± 4.088 ng/mL
- Measured concentration (Mean ± SD) ([5]; Room temperature 3 h, nominal 3186 ng/mL): 2890 ± 117.6 ng/mL
- Measured concentration (Mean ± SD) ([5]; –80 ◦C for 30 days, nominal 38.24 ng/mL): 35.84 ± 1.899 ng/mL
- Measured concentration (Mean ± SD) ([5]; –80 ◦C for 30 days, nominal 3186 ng/mL): 3049 ± 391.4 ng/mL

SMILES: C[C@H](c1ccccc1)n1cncc1C(=O)OCCO [M2]
- source (liver microsomes) in which detected [6]: every liver microsomal preparation; also recorded: human, monkey, dog, rat, mouse
